In the experiment the test system is Taxol®-pretreated cancer cells. Description: IC50 of paclitaxel for Taxol®-pretreated cancer cells. Format: cell-based, human. Particulars: Taxol®-pretreated vs native cancer cells; data not shown.

Consider one compound from patent US7311901B2, “Amphiphilic block copolymer and polymeric composition comprising the same for drug delivery” (Samyang Corporation, priority 2003, dated 2007).

Molecules are shown by their SMILES.

In the case of `CC(=O)O[C@H]1C(=O)[C@@]2(C)[C@H]([C@H](OC(=O)c3ccccc3)[C@]3(O)C[C@H](OC(=O)[C@H](O)[C@@H](NC(=O)c4ccccc4)c4ccccc4)C(C)=C1C3(C)C)[C@]1(OC(C)=O)CO[C@@H]1C[C@@H]2O` [paclitaxel], the IC50 of paclitaxel entry is recorded as “increased significantly”.
